This is an account of results in PubChem BioAssay AID256 (DTP/NCI, 2004).

Values joined by “and” are separate entries in the source; they are usually repeats but may differ in a detail not shown here. Equal entries are not always repeated. Toxic doses and inconclusive results are not listed.

The test system of this experiment is CD2F1 mice, L1210 leukemia ip, survival T/C. Kind of experiment: NCI In Vivo Anticancer Drug Screen. Data for tumor model L1210 Leukemia (intraperitoneal) in CD2F1 (CDF1) mice. As to conditions: higher = longer survival. In a few lines:
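Ratio T/C, where T is the treated-group value and C the vehicle-dosed control value, from mice implanted with a transplantable tumor.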

Setting [1] is: endpoint: mean survival time, dose: 100.0 mg/kg/injection, schedule: Q01DX009 (ip), vehicle: saline with Tween-80.
[2] abbreviates: endpoint: mean survival time, dose: 100.0 mg/kg/injection, schedule: Q04DX003 (ip), vehicle: saline with Tween-80.
Where [3] appears, read: endpoint: mean survival time, dose: 200.0 mg/kg/injection, schedule: Q01DX009 (ip), vehicle: saline with Tween-80.
[4] abbreviates: endpoint: mean survival time, dose: 200.0 mg/kg/injection, schedule: Q04DX003 (ip), vehicle: saline with Tween-80.
[5] abbreviates: endpoint: mean survival time, dose: 400.0 mg/kg/injection, schedule: Q01DX009 (ip), vehicle: saline with Tween-80.
The mark [6] stands for this setting: endpoint: mean survival time, dose: 400.0 mg/kg/injection, schedule: Q04DX003 (ip), vehicle: saline with Tween-80.
Where [7] appears, read: endpoint: mean survival time, dose: 50.0 mg/kg/injection, schedule: Q01DX009 (ip), vehicle: saline with Tween-80.
Where [8] appears, read: endpoint: mean survival time, dose: 100.0 mg/kg/injection, schedule: Q01DX001 (ip), vehicle: saline with Tween-80.
[9] abbreviates: endpoint: mean survival time, dose: 400.0 mg/kg/injection, schedule: Q01DX001 (ip), vehicle: saline with Tween-80.
Setting [10] is: endpoint: mean survival time, dose: 100.0 mg/kg/injection, schedule: Q04DX002 (ip), vehicle: saline with Tween-80.
[11] abbreviates: endpoint: mean survival time, dose: 200.0 mg/kg/injection, schedule: Q04DX002 (ip), vehicle: saline with Tween-80.
[12] abbreviates: endpoint: mean survival time, dose: 400.0 mg/kg/injection, schedule: Q04DX002 (ip), vehicle: saline with Tween-80.
The mark [13] stands for this setting: endpoint: mean survival time, dose: 25.0 mg/kg/injection, schedule: Q01DX009 (ip), vehicle: saline with Tween-80.
Where [14] appears, read: endpoint: mean survival time, dose: 100.0 mg/kg/injection, schedule: Q01DX001 (ip), vehicle: other.
Setting [15] is: endpoint: mean survival time, dose: 200.0 mg/kg/injection, schedule: Q01DX001 (ip), vehicle: other.

Take `c1ccc(-c2n[nH]c3ccccc23)cc1`: the T/C reads like this: (endpoint: median survival time, dose: 50.0 mg/kg/injection, schedule: Q04DX002 (ip), vehicle: saline with Tween-80) 100 % of control; (endpoint: median survival time, dose: 100.0 mg/kg/injection, schedule: Q04DX002 (ip), vehicle: saline with Tween-80) 100 % of control; (endpoint: median survival time, dose: 200.0 mg/kg/injection, schedule: Q04DX002 (ip), vehicle: saline with Tween-80) 100 % of control.
Turning to `Fc1c(F)c(F)c(OP2(Oc3c(F)c(F)c(F)c(F)c3F)=NP(Oc3c(F)c(F)c(F)c(F)c3F)(Oc3c(F)c(F)c(F)c(F)c3F)=NP(Oc3c(F)c(F)c(F)c(F)c3F)(Oc3c(F)c(F)c(F)c(F)c3F)=N2)c(F)c1F`, the T/C runs as follows: under setting [1], 103 % of control; under setting [2], 98 % of control; under setting [3], 101 % of control; under setting [4], 95 % of control; under setting [5], 95 % of control; under setting [6], 98 % of control.
With `CC1(O)CC2CCCC1C2` (configuration not stated), the T/C under setting [2] was 93 % of control, the T/C under setting [4] was 90 % of control and the T/C under setting [6] was 93 % of control.
For the molecule `O=C(Nc1ccccc1C(F)(F)F)n1c(=S)[nH]c2cc([N+](=O)[O-])ccc21`, the T/C reads like this: under setting [7], 90 % of control; under setting [1], 105 % of control; under setting [3], 94 % of control.
For `O=NNc1cccc(NN=O)n1`, the T/C is, setting by setting: (endpoint: median survival time, dose: 6.25 mg/kg/injection, schedule: Q01DX005 (ip), vehicle: saline) 115 % of control and 108 % of control; (endpoint: median survival time, dose: 12.5 mg/kg/injection, schedule: Q01DX005 (ip), vehicle: saline) 121 % of control; (endpoint: median survival time, dose: 29.0 mg/kg/injection, schedule: Q01DX005 (ip), vehicle: saline) 153 % of control; (endpoint: median survival time, dose: 44.0 mg/kg/injection, schedule: Q01DX005 (ip), vehicle: saline) 166 % of control; (endpoint: median survival time, dose: 100.0 mg/kg/injection, schedule: Q01DX005 (ip), vehicle: saline) 122 % of control and 91 % of control and 98 % of control.
As to `C=C(C)C1(CC)C(=O)NC(=S)N(C)C1=O` (configuration not stated), the T/C runs as follows: (endpoint: mean survival time, dose: 75.0 mg/kg/injection, schedule: Q01DX001 (ip), vehicle: saline) 97 % of control; (endpoint: mean survival time, dose: 150.0 mg/kg/injection, schedule: Q01DX001 (ip), vehicle: saline) 101 % of control; (endpoint: mean survival time, dose: 300.0 mg/kg/injection, schedule: Q01DX001 (ip), vehicle: saline) 101 % of control.
Regarding `CCCCCCC(/C=N\N=C\c1ccco1)=C\c1ccccc1`, the T/C was 92 % of control under setting [1]; 90 % of control under setting [2]; 92 % of control under setting [3]; 100 % of control under setting [4]; 100 % of control under setting [5]; 90 % of control under setting [6].
As for `O=C1C=CC(O)CCC1` (configuration not stated) (tested in a mixture with another compound), the T/C reads like this: under setting [2], 101 % of control; under setting [4], 101 % of control; under setting [6], 97 % of control.
As for `O=C1c2cc([N+](=O)[O-])ccc2-c2ccc([N+](=O)[O-])cc21`, the T/C runs as follows: (endpoint: mean survival time, dose: 12.5 mg/kg/injection, schedule: Q01DX009 (ip), vehicle: Klucel (hydroxypropylcellulose) (HPC)) 98 % of control; (endpoint: mean survival time, dose: 25.0 mg/kg/injection, schedule: Q01DX009 (ip), vehicle: Klucel (hydroxypropylcellulose) (HPC)) 95 % of control; (endpoint: mean survival time, dose: 50.0 mg/kg/injection, schedule: Q01DX009 (ip), vehicle: Klucel (hydroxypropylcellulose) (HPC)) 102 % of control.
As for `CCC1CC(=O)C2Nc3ccccc3C2C1` (configuration not stated), the T/C is 88 % of control under setting [8] and 86 % of control under setting [9].
As for `COc1ccc(NC(=O)Nc2ccccc2OC)c(OC)c1`, the T/C by setting is: under setting [10], 94 % of control; under setting [11], 94 % of control; under setting [12], 87 % of control.
Regarding `O=CNNC=O`, the T/C under setting [1] is 94 % of control; the T/C under setting [2] is 107 % of control; the T/C under setting [3] was 92 % of control; the T/C under setting [4] was 96 % of control; the T/C under setting [5] is 97 % of control; the T/C under setting [6] is 100 % of control.
With `CCCNc1ccc(S(=O)(=O)c2ccc(N)cc2)cc1`, the T/C is 95 % of control under setting [13], 95 % of control under setting [7] and 89 % of control under setting [1].
For `Clc1ccc(SCNc2ccccc2Cl)cc1`, the T/C runs as follows: under setting [10], 100 % of control; under setting [11], 100 % of control; under setting [12], 100 % of control.
As to `Oc1ccc(SCc2ccc(NCc3ccccc3)cc2)cc1`, the T/C (endpoint: mean survival time, dose: 12.5 mg/kg/injection, schedule: Q01DX009 (ip), vehicle: DMSO) is 95 % of control; the T/C (endpoint: mean survival time, dose: 12.5 mg/kg/injection, schedule: Q01DX009 (ip), vehicle: saline with Tween-80) was 99 % of control; the T/C (endpoint: mean survival time, dose: 25.0 mg/kg/injection, schedule: Q01DX009 (ip), vehicle: DMSO) is 97 % of control; the T/C under setting [13] was 97 % of control; the T/C (endpoint: mean survival time, dose: 50.0 mg/kg/injection, schedule: Q01DX009 (ip), vehicle: DMSO) was 97 % of control; the T/C under setting [7] is 103 % of control. The T/C is, setting by setting: (endpoint: mean survival time, dose: 100.0 mg/kg/injection, schedule: Q01DX009 (ip), vehicle: DMSO) 92 % of control; under setting [1], 104 % of control; under setting [3], 101 % of control; under setting [5], 101 % of control.
Consider `CCOC(=O)CSC(=S)NC1CCCCC1`, for which the T/C under setting [2] was 101 % of control, the T/C under setting [4] is 98 % of control and the T/C under setting [6] was 95 % of control.
In the case of `CCOC(=O)N1N(C(=O)c2ccccc2)C(=O)CC1(C)C`, the T/C is 95 % of control under setting [14]; 116 % of control under setting [15]; 98 % of control (endpoint: mean survival time, dose: 400.0 mg/kg/injection, schedule: Q01DX001 (ip), vehicle: other).
As to `CC1OC(O[C@@H]2C=C3CC[C@@H]4[C@H](CC[C@]5(C)[C@@H](c6ccc(=O)oc6)CC[C@]45O)[C@@]3(C)CC2)C(O)C(O)C1O` (some centres not stated), the T/C was 101 % of control (endpoint: mean survival time, dose: 1.25 mg/kg/injection, schedule: Q01DX001 (sc), vehicle: steriod suspending solution); 94 % of control (endpoint: mean survival time, dose: 1.25 mg/kg/injection, schedule: Q01DX009 (sc), vehicle: steriod suspending solution); 101 % of control (endpoint: mean survival time, dose: 2.5 mg/kg/injection, schedule: Q01DX001 (sc), vehicle: steriod suspending solution); 97 % of control (endpoint: mean survival time, dose: 2.5 mg/kg/injection, schedule: Q01DX009 (sc), vehicle: steriod suspending solution); 93 % of control (endpoint: mean survival time, dose: 2.5 mg/kg/injection, schedule: Q04DX003 (sc), vehicle: steriod suspending solution); 98 % of control (endpoint: mean survival time, dose: 5.0 mg/kg/injection, schedule: Q01DX001 (sc), vehicle: steriod suspending solution). Further, the T/C is 95 % of control (endpoint: mean survival time, dose: 5.0 mg/kg/injection, schedule: Q01DX009 (sc), vehicle: steriod suspending solution); 95 % of control (endpoint: mean survival time, dose: 5.0 mg/kg/injection, schedule: Q04DX003 (sc), vehicle: steriod suspending solution); 101 % of control (endpoint: mean survival time, dose: 10.0 mg/kg/injection, schedule: Q01DX001 (sc), vehicle: steriod suspending solution); 95 % of control (endpoint: mean survival time, dose: 10.0 mg/kg/injection, schedule: Q01DX009 (sc), vehicle: steriod suspending solution); 112 % of control (endpoint: mean survival time, dose: 10.0 mg/kg/injection, schedule: Q04DX003 (sc), vehicle: steriod suspending solution); 103 % of control (endpoint: mean survival time, dose: 20.0 mg/kg/injection, schedule: Q01DX001 (sc), vehicle: steriod suspending solution). The T/C reads like this: (endpoint: mean survival time, dose: 20.0 mg/kg/injection, schedule: Q04DX003 (sc), vehicle: steriod suspending solution) 101 % of control; (endpoint: mean survival time, dose: 40.0 mg/kg/injection, schedule: Q04DX003 (sc), vehicle: steriod suspending solution) 95 % of control.
`CCOc1ccc(-n2c(O)c(N=Nc3ccccc3)c(=O)n(-c3ccc(OC)cc3)c2=S)cc1`: the T/C is 101 % of control under setting [8]; 92 % of control (endpoint: mean survival time, dose: 200.0 mg/kg/injection, schedule: Q01DX001 (ip), vehicle: saline with Tween-80); 90 % of control under setting [9].
Turning to `COc1cc(C=C2C(=O)C=CC2=O)ccc1O`, the T/C was 108 % of control (endpoint: mean survival time, dose: 3.13 mg/kg/injection, schedule: Q04DX002 (ip), vehicle: saline with Tween-80); 100 % of control (endpoint: mean survival time, dose: 6.25 mg/kg/injection, schedule: Q04DX002 (ip), vehicle: saline with Tween-80); 106 % of control (endpoint: mean survival time, dose: 12.5 mg/kg/injection, schedule: Q04DX002 (ip), vehicle: saline with Tween-80).
Take `Nc1cc(NC(c2ccccc2)c2ccccc2)c2[nH]cnc2n1`: the T/C by setting is: under setting [14], 91 % of control; under setting [15], 95 % of control.
Take `CCN(CC)C(=O)Nc1cc(Cl)ccc1Cl`: the T/C is, setting by setting: under setting [10], 97 % of control; under setting [11], 101 % of control.
